According to patent US6713459B1, “Methods for the prophylactic and therapeutic treatment of cardiac tissue damage” (East Tennessee State University, priority 2000, dated 2004):

Tests used:
Type in all cases: in vivo, Sprague-Dawley rats
[1] = test system: cardiac myocyte apoptosis; test: TUNEL assay of cardiac myocyte apoptosis after I/R; conditions: 40 mg/kg 1 hr before 30 min ischemia, 3 hr reperfusion; untreated I/R hearts 17.17±1.41%
Description: (§1) Ischemia/reperfusion protocols were performed using Sprague-Dawley rats (Harlan Sprague-Dawley, Indianapolis, Indiana). Left anterior descending (LAD) coronary artery occlusion was performed by tying off the LAD artery near its origin using a suture. Glucan phosphate was employed in the ischemia reperfusion (I/R) studies.
The effects of (1→3)-β-D-glucan on apoptosis were investigated using rats treated with (1-3)-β-D-glucan (40 mg/kg) 1 hr. before the. hearts were subjected to 30 min. of ischemia followed by 3 hr. reperfusion. Upon completion of the protocol, the hearts were removed, rinsed free of blood, and perfused with freshly prepared phosphate-buffered 4% formaldehyde. Heart segments distal to the ligation were horizontally sliced into 2 mm sections and fixed with phosphate-buffered 4% formaldehyde at 4° C. overnight. The terminal deoxynucleotidyl transferase-mediated dUTP nick end-labeling (TUNEL) technique (Gavrieli, Y., et al., J. Cell Biol. (1992) 119: 493-501) was used to quantitate the level of apoptosis, using an In Situ Cell Death Detection Kit (Roche Diagnostics) and manufacturer's instructions. Briefly, three slides from each block were evaluated to determine the percentage of TUNEL positive cells. For each slide, four fields were randomly examined using a defined rectangular field area with magnification of 200×. A total of 100 cells were counted in each field. […]

[2] = test system: rat hearts subjected to ischemia/reperfusion; test: myocardial infarct size after LAD occlusion and reperfusion, TTC staining; conditions: 40 mg/kg one hour before 45 min LAD occlusion, 4 hr reperfusion; mean±SEM; untreated 48.82±3.03%
Description: as §1
Sprague-Dawley rats (250-300 g) were treated, with (1→3)-β-D-glucans at a concentration of 40 mg/kg one hour before the hearts were subjected to 45 minutes of occlusion of the left anterior descending (LAD) coronary artery, followed by reperfusion for 4 hours. At the completion of the experimental protocol, the heart was removed, rinsed free of blood, stained with 1% Evans Blue, and sectioned into five slices, followed by incubation in triphenyltetrazolium chloride (TTC) solution. Viable myocardium (risk area) was stained with TTC while the necrotic myocardium was pale white. The area of infarction on both sides of each slice was analyzed by an image analyzer (Alpha Imager 2000), corrected for each slice weight and summed for each left ventricle. The infarct areas were expressed as a percentage of risk area as well as a percentage of left ventricle and the risk areas were expressed as a percentage of left ventricle.
Glucan phosphate (40 mg/kg) was administered to rats via intravenous route 5 min. after the rat hearts were subjected to occlusion of the left afterior descending (LAD) coronary artery, followed by 4 hr. reperfusion. Subsequently, the hearts were harvested and the infarct size/area at risk was determined using TTC staining and image analysis as described previously. FIG. 19 illustrates results, with infarct size expressed as percentage of risk area and risk area expressed as percentage of the left ventricle.

NF-κB = test: EMSA of nuclear NF-κB binding activity in rat myocardium after I/R; conditions: 40 mg/Kg one hr before ischemia (I45 or I15R30)
Description: Rats were pretreated with glucan (40 mg/Kg) for one hr. before being subjected to 45 min. of ischemia (I45), as well as 15 min. ischemia followed by 30 min. reperfusion (I15R30). Nuclear proteins were isolated and analyzed by EMSA. Results are expressed as means±SEM for 5 hearts at each time point. P<0.05 as compared to normal (N).
as §1
(§2) To investigate NF-κB activation in vivo, rat hearts were subjected to various periods of ischemia or ischemia and reperfusion (I/R). For example, levels of IκBα and phosphorylated IκBα proteins in cell cytoplasm following ischemia were evaluated by Western blot with anti-IκBα or antibody specific for the phosphorylated […] (FIG. 9a). NF-κB binding activity in the nucleus following onset of ischemia was analyzed by electrophoretic mobility shift assay (EMSA) (FIG. 10a). […]
NF-κB nuclear binding activity in rat myocardium after in vivo I/R was also determined. […]

TNFα mRNA = test: RT-PCR of TNFα mRNA in rat myocardium after I/R; conditions: 40 mg/Kg 1 hr before 15 min ischemia and 1 hr reperfusion
Description: FIG. 17 depicts RT-PCR analysis of total RNA obtained from rat myocardium pretreated with glucan (40 mg/Kg) for 1 hr. prior to 15 min. ischemia and 1 hr. reperfusion. TNFα and GAPDH are labeled at right to indicate the position of the corresponding RNA. M is a 100 bp DNA ladder. As indicated, pretreatment with glucan (I15′R1 hr+Glucan) decreases myocardial TNFα mRNA expression after I/R.
as §1
The inventors also investigated whether (1→3)-β-D-glucans regulate TNFα gene expression. […] (1→3)-β-D-glucan down-regulates LPS-induced TNFα mRNA expression in vivo.

IκBα = test: Western blot of cytoplasmic IκBα in rat myocardium after I/R; conditions: 40 mg/Kg one hr before 15 min ischemia and 30 min reperfusion
Description: FIG. 15 is a graphic representation of effect of glucan on loss of IκBα from rat myocardial cytoplasm following I/R. Rats were pretreated with glucan (40 mg/Kg) for one hr. before being subjected to 15 min. of ischemia and 30 min. of reperfusion. Cytoplasmic proteins were isolated and levels of IκBα protein determined by Western blot analysis. Results were expressed as means±SEM for 5 hearts at each time point. P<0.05 as compared to normal (N).
as §1, §2

(1→3)-β-D-glucan
apoptotic cell nuclei (TUNEL positive) [1]: 3.33±0.71%
infarct size/area at risk [2]: 25.86±2.33%
effect on I/R induced myocardial NF-κB binding activity (NF-κB): markedly reduced, but did not completely inhibit
effect on I/R increase in TNFα mRNA levels (TNFα mRNA): significantly inhibited
effect on cytoplasmic IκBα after I/R (IκBα): prevent loss
